Data: PMC10059083, “Design, Synthesis, and Biological Evaluation of Novel Hydroxamic Acid-Based Organoselenium Hybrids” (Pharmaceuticals, 2023)
Converted amounts (≈) assume the structure as drawn.

Experiments:
[1] = test system: E. coli; assay: Agar diffusion assay, E. coli; type: cell-based, Escherichia coli
Source text: (§1) The encouraging antitumor properties of the OSe compounds motivated us to evaluate their corresponding antimicrobial activities against the C. albicans fungal strain, S. aureus Gram-positive bacteria, and E. coli Gram-negative bacteria. Therefore, we applied the agar diffusion and minimum inhibitory concentration (MIC) methods using clotrimazole antifungal and ampicillin antibacterial drugs as standards.
(§2) The products’ antimicrobial properties were examined according to the previously reported method, via agar well diffusion assay against E. coli, S. aureus, and C. albicans. A microdilution method was also used to record MICs (M), following the previously reported procedure. Experimental details can be found in the Supplementary Materials.
1.1. […]
1.1.2. The antimicrobial activity
The antimicrobial activities of the OSe compounds were evaluate d against C. albicans yeast as well as E.
coli gram-negative and S. aureus gram-positive bacteria employing the agar well diffusion assay. […]
5 g, and beef extract 3 g) seeded with the dedicated strain. Incubation lasted for 13 h at 36 0C.
Experiments were replicated three times and the antifungal clotrimazole and antibiotic ampicillin
1.1.3. […]

[2] = test system: WI-38 cells; assay: MTT cytotoxicity assay, normal lung fibroblast WI-38 cells; type: cell-based; details: Homo sapiens, WI-38, 24 h, read-out: WI38 IC50
Source text: (§3) Recently, OSe agents have attracted interest due to their potential chemoprotective and antitumor properties. […] Therefore, we estimated the OSe agents’ antiproliferative activities against different cancer cells, i.e., MCF-7 and HepG2 cells and healthy lung fibroblast WI-38 cells, using the MTT assay. The drug doxorubicin was employed as the standard. The corresponding therapeutic indices (TI) are described as the proportion of the WI38 cells IC50 to the IC50 of the cancer cell (e.g., MCF-7 and HepG2) (Table 1).
(§4) The products’ anticancer activity was examined using the MTT assay against breast (MCF-7) carcinoma cells, liver (HepG2), and normal WI-38 cells, following the previously reported method. Experimental details can be found in the Supplementary Materials.
(§5) 1.1. The biological assays
(§6) 1.1.1. The anticancer activity
(§7) The breast adenocarcinoma (MCF-7), Hepatocellular carcinoma (HEPG-2), and normal fibroblast (WI-38) cells were obtained from ATCC via Holding company for biological products and vaccines (VACSERA), Cairo, Egypt. The reagents […] medium, MTT, DMSO, and fetal bovine serum was obtained from Sigma Aldrich. Dulbecco’s modified Eagle’s medium was used as the culture medium for the cells, and the cytotoxicity was evaluated using the reported MTT assay. Doxorubicin was used as the positive reference, and the IC50 values were obtained from the corresponding dose-response curve.
(§8) This colorimetric assay is based on converting the yellow tetrazolium bromide (MTT) to a purple formazan derivative by mitochondrial succinate dehydrogenase in viable cells. Cell lines were cultured in […] medium with 10% fetal bovine serum. Antibiotics added were 100 units/ml penicillin and 100µg/ml streptomycin at 37 C in a 5% Co2 incubator. The cell lines were seeded in a 96-well plate at a density of 1.0x10^4 cells/well. at 37 C for 48 h under 5% Co2. After incubation, the cells were treated with different concentrations of compounds and incubated for 13 […]
(§9) Finally, dimethyl sulfoxide (DMSO) in the volume of 100 µl is added to each well to dissolve the purple formazan formed. The colorimetric assay is measured and recorded at an absorbance of 570 […]
(§10) The percentage of the relative cell viability was calculated as (A570 of treated samples/A570 of the untreated sample) X 100. […]

[3] = test system: C. albicans; assay: MIC by microdilution, C. albicans; type: cell-based; details: Candida albicans, read-out: MIC C. albicans
Source text: as §1, §2
(§11) Briefly, a concentration of 1 mM was prepared for each compound by dissolving in DMSO. Paper discs of standard size […] were sterilized in an autoclave and soaked in 9 µL of the test compounds, and placed in the Petri dishes, which in turn contain a nutrient media (agar 9 g, peptone 5 g, and beef extract 3 g) seeded with the dedicated strain. Incubation lasted for 13 h at 36 0C. […]

[4] = test system: S. aureus; assay: Agar diffusion assay, S. aureus; type: cell-based; details: Staphylococcus aureus; 6-mm disks soaked with 20 μM of the OSe agents; read-out: S. aureus ZID (inhibition zone diameter)
[5] = test system: E. coli; assay: MIC by microdilution, E. coli; type: cell-based; details: Escherichia coli; microdilution method
Source text: as §1, §2, §11

[6] = test system: S. aureus; assay: MIC by microdilution, S. aureus; type: cell-based; details: Staphylococcus aureus; microdilution method
Source text: as §1, §2, §11

[7] = test system: MCF-7 cells; assay: MTT antiproliferative assay, MCF-7 cells; type: cell-based
Source text: as §3, §4, §5, §6, §7, §8, §9, §10

[8] = ABTS radical scavenging assay
Procedure: The antioxidant activities of the OSe compounds were intensively investigated because these are usually the cause of their chemopreventive potency. Their redox activities were evaluated via DPPH and ABTS assays, using ascorbic acid as the standard. We spectrophotometrically measured the antioxidant efficiency of the OSe compounds by their ability to decolorise the DPPH^. and ABTS^. radicals at […] (Figure 2).
The compounds’ antioxidant properties were assessed by in vitro bioassays using DPPH and ABTS, following the reported method. Details are in the Supplementary Materials.
Figure 4 Estimation of the OSe compounds’ redox activities via DPPH and ABTS experiments. All tests are mean ± S.D. ABTS experiment: absorbance was followed at 734 nm for OSe compounds (50 µL, 1 mM in MeOH) and ABTS solution (60 µL). DPPH Absorbance was monitored at 517 nm for OSe compounds (200 µL, 1 mM in MeOH) and DPPH (400 µL) after 30 min. […]
1.1.3.2. The ABTS bioassay
The antioxidant activity of the investigated compounds was assessed using 2,2’-azino-bis(3-ethylbenzothiazoline-6-sulphonic acid (ABTS) method. The radical cation derived from ABTS was prepared by the reaction of 60 mM ABTS solution with 0.3 M manganese dioxide solution in 0.1M phosphate buffer, pH 7. Then, the mixture was shaken, centrifuged, filtered, and the absorbance (Acontrol ) of […]
the resulting green-blue solution (ABTS radical solution) was measured at wavelength 734 nm. Then, […] of 1 mg/ml test compound in phosphate-buffered methanol was added. The absorbance (Atest) was measured. The reduction in color intensity was expressed as % inhibition. The % inhibition for each […]
compound is calculated from the following equation
Inhibition% = (Acontrol-Asample)/(Acontrol)*100
Ascorbic acid (vitamin C) was used as a standard antioxidant (positive control). A blank sample was run […]
without ABTS and using MeOH/phosphate buffer (1:1) instead of the sample. A negative control sample […]
was run with MeOH/phosphate buffer (1:1) instead of a tested compound.

[9] = test system: C. albicans; assay: Agar diffusion assay, C. albicans; type: cell-based, Candida albicans

For `Nc1ccc([Se]CC(=O)NOCc2ccccc2)cc1` [Compound 8, 2-((4-Aminophenyl)selanyl)-N-(benzyloxy)acetamide], the “E. coli ZID (inhibition zone diameter)” value ([1]; 6-mm disks soaked with 20 μM of the OSe agents) was 16 mm, the “E. coli IA% (activity index)” value ([1]; ratio of inhibition zone of compound to that of positive control (ampicillin)) was 69.6% and the IC50 [2] was 27.4 ± 2.1 µM. For the same compound, the MIC [3] was 4 µM (≈ 1.34 µg/mL), the zone of inhibition at 20 µM [4] was 19 mm and the MIC [5] was 8 µM (≈ 2.68 µg/mL). For the same compound, the MIC [6] was 4 µM (≈ 1.34 µg/mL), the IC50 ([7]; Homo sapiens, MCF7, 24 h, read-out: MCF7 IC50) was 9.86 ± 0.7 µM and the “MCF7 TI (therapeutic index)” value ([7]; ratio of IC50 against WI38 cells to IC50 against MCF-7 cells) was 2.8. For the same compound, the “antioxidant (scavenging) activity in the ABTS assay” value ([8]; compounds 50 µL, 1 mM in MeOH, ABTS solution 60 µL, absorbance at 734 nm) was 73.9%, the IC50 ([8]; concentration causing 50% decrease in absorbance, ABTS assay) was 27.24 ± 0.2 µM and the zone of inhibition at 20 µM ([9]; Candida albicans, read-out: C. albicans ZID (inhibition zone diameter)) was 22 mm. The “C. albicans IA% (activity index)” value ([9]; ratio of inhibition zone of compound to that of positive control (clotrimazole)) was 91.7%.
